Tests used:
[1] = Drug Effects on Phenylbenzoquinone-induced Writhing in Mice; format: in vivo, Male Swiss albino mice; settings: Mus musculus, po, value in parentheses, read-out: Phenylquinone Writhing in Mice, ED50
Description: A further test used to determine the utility of the compounds of the present invention is designated: Drug Effects on Phenylbenzoquinone-induced Writhing in Mice
The objective of this test is to determine the ability of test drugs to inhibit the nociceptive (pain) response of mice injected with a chemical irritant. This test is a primary screen for both peripheral and centrally acting analgesic drugs.
Male Swiss albino mice (15-25 g). The animals are fasted for 18 hours prior to use but have free access to water.
(§1) Drug Preparation and Administration:
Drugs are dissolved or suspended according to their solubility in 0.5% Tween 80 in distilled water. They are administered by gastric gavage in a volume of 5 mL/kg. For primary screening all drugs are administered at the arbitrary dosage of 25 mg/kg, p.o. to a group of 10 mice.
A modification of the method of Siegmund et al, Proc. Soc. Exp. Biol. Med., 95, 729-731 (1957) is used. Groups of 5 mice are dosed with the test compound or vehicle control. Sixty minutes later the animals are injected i.p. with 0.3 mL/20 g body weight of a 0.02% solution of phenylbenzoquinone (PBQ; 2-phenyl-1,4-benzoquinone) and placed in individual observation boxes. The number of writhing or abdominal squirming movements made by each mouse during the following 15 min. period is counted. The experiment is repeated with another group of 5 mice and the mean number of writhes per mouse for a group of 10 mice is calculated.
Drug treated and vehicle-treated control groups are compared and the percentage protection conferred by the drug is calculated: [formula] where c=mean number of writhes in the control group where t=mean number of writhes in the test drug group

[2] = Randall Selitto Test in the Rat (pain threshold in inflamed paw); format: in vivo, Male Sprague Dawley rats; settings: rats; for ED50: Rattus norvegicus, po, 1 hour after dosing, value in parentheses, read-out: Randall Selitto Test in the Rat, ED50 (dose which causes analgesia in 50% of the animals)
Source text: An additional test used to determine the utility of the compounds of the present invention is designated: Randall Selitto Test in the Rat
The objective of this test is to assess the potency of peripheral and central acting drugs in inhibiting the reaction of rats to painful stimulation applied to an inflamed paw.
Male Sprague Dawley rats (180-200 g) are used. The animals are fasted overnight prior to drug administration.
as §1
Freund's Complete Adjuvant (FCA) is prepared by suspending 5 mg killed and dried mycobacterium butyricum (Difco) in 1 mL mineral oil. The test compounds are dissolved or suspended in 0.5% Tween 80 in distilled water according to their solubility. They are administered by gastric gavage in a volume of 0.5 mL/100 g body weight to groups of 10 animals.
Ten rats are used per group. The method is essentially that described by Randall and Selitto, Arch. Int. Pharmacodyn. 111, 409 (1957) and the apparatus which is used to apply pressure to the paw (Analgesi-meter for the rat paw, Ugo Basile, Comeria, Italy) is a modification of that described by Gilfoil et al, J. Pharmacol. 142, 1 (1963). The instrument is basically a device which exerts a force that increases at a constant rate. The force is continuously monitored by a pointer moving along a linear scale and is measured in grams. The inflammatory reaction is induced in the left hind paw of rats of injecting 0.1 mL of Freund's adjuvant intradermally. The test compound or vehicle is administered 24 hours after the adjuvant. The pain threshold (vocalization) is determined 1 hour later in the inflamed paw of the treated and control groups.
Presentation of Results and Criteria for Activity:
Each animal which has a reading 1.5 times greater than the mean reading of the control-group will be considered as responsive (having an analgesic effect) to treatment. The number of animals showing an analgesic effect is then determined in each group.
The ED50 (dose which causes analgesia in 50% of the animals) using at least 3 doses is then determined, by the method described in Litchfield and Wilcoxon, J. Pharmacol. Exp. Ther., 96, 99-113 (1949).

[3] = Preventative Adjuvant Edema (acute anti-inflammatory effect in rats); format: in vivo, Male Sprague Dawley rats; set-up: inhibition in vivo: dose or concentration left out as unconfirmed; settings: for ED50 / inhibition in vivo / inhibition in vivo at 25 mg/kg: Rattus norvegicus, po, 72 h; for ED50: value in parentheses; for inhibition in vivo / inhibition in vivo at 25 mg/kg: read-out: Preventative Adjuvant Edema, percent inhibition
Description: This test is a primary screen for anti-inflammatory drugs.
Male Sprague Dawley rats (180-200 g) are used. The animals have free access to water but food is withdrawn 18 hours before testing.
Drug Preparations and Administration:
Freund's complete adjuvant is prepared by suspending 5 mg of killed and dried Mycobacterium butyricum (Difco) in 1 mL mineral oil. The test compounds are dissolved, of suspended in 0.5% Tween 80 in distilled water according to their solubility. For primary screening all drugs are administered by gastric lavage at the arbitrary dosage of 25 mg/kg, p.o. in a volume of 0.5 mL/100 g body weight to groups of 10 animals.
The method is essentially that described by Wax et al, J. Pharmacol. Exp. Ther., 192, 166-171 (1975). Groups of rats are injected intradermally in the left hind paw with 0.1 mL of Freund's complete adjuvant. The test compound or vehicle is administered immediately before the adjuvant, 24 hours and 48 hours after the adjuvant (days 0, 1 and 2). The injected hind paw volume is measured before the injection of adjuvant and 24 hrs. after the last drug administration (day 3) by means of a plethysmometer (Buxco Electronics Inc.). The difference between the hind paw volume on day 0 and day 3 represents the edema volume. Etodolac (25 mg/kg, p.o.) is included as a positive control.
The mean edema volume (expressed as mL±SEM) is calculated for each group and the percentage protection conferred by the drug is calculated: [formula] where c is the mean edema volume for the vehicle-treated (0.5% Tween 80 in distilled water) controls and t is the mean edema volume for the drug treated group.

[4] = Drug Effects on Phenylbenzoquinone-induced Writhing in Mice; format: in vivo, Male Swiss albino mice; settings: Mus musculus, po, Tested at 10 mg/kg, p.o., read-out: Phenylquinone Writhing in Mice, percent inhibition

| Structure (SMILES) | ED50 [1] [mg/kg] | ED50 [2] [mg/kg] | inhibition in vivo ([3]; p.o.) [%] | inhibition in vivo at 10 mg/kg [4] [%] | other results |
| --- | --- | --- | --- | --- | --- |
| C=CCC1COC(CC)(CC(=O)O)c2[nH]c3c(CC)c(F)ccc3c21 (single isomer, unassigned) [Example 10] | 7 |  |  |  | Randall Selitto Test in the Rat, percent inhibition ([2]; Tested at 5 mg/kg, p.o.): 60%; ED50 [3]: 7.8 mg/kg |
| C=CCC1COC(CC)(CC(=O)O)c2[nH]c3c(CCC)cccc3c21 (single isomer, unassigned) [Example 12, 1-ethyl-1,3,4,9-tetrahydro-4-(2-propenyl)-8-propyl-pyrano[3,4-b]indole-1-acetic acid] | 9.5 | 1 | 32 |  |  |
| C=CCC1COC(CC)(CC(=O)O)c2[nH]c3c(C)c(Cl)ccc3c21 (single isomer, unassigned) [Example 16, 7-chloro-1-ethyl-1,3,4,9-tetrahydro-8-methyl-4-(2-propenyl)-pyrano[3,4-b]indole-1-acetic acid] | 5.5 | 0.012 |  |  | ED50 [3]: 3 mg/kg |
| CCC1(CC(=O)O)OCC(Cc2ccccc2)c2c1[nH]c1c(Cl)c(Cl)ccc21 (single isomer, unassigned) [Example 18, 7,8-dichloro-1-ethyl-1,3,4,9-tetrahydro-4-(phenylmethyl)-pyrano[3,4-b]indole-1-acetic acid] | 3.2 | 0.8 |  |  | inhibition in vivo at 25 mg/kg ([3]; 25 mg/kg, p.o.): 15% |
| CCC1(CC(=O)O)OCC(Cc2ccccc2)c2c1[nH]c1c(C)c(Cl)ccc21 (single isomer, unassigned) [Example 19, 7-chloro-1-ethyl-1,3,4,9-tetrahydro-8-methyl-4-(phenylmethyl)-pyrano[3,4-b]indole-1-acetic acid] | 3.3 | 1.6 |  |  | inhibition in vivo at 25 mg/kg ([3]; 25 mg/kg, p.o.): 52% |
| CCC1(CC(=O)O)OCC(Cc2ccccc2)c2c1[nH]c1c(C)cccc21 (single isomer, unassigned) [Example 22, 1-ethyl-1,3,4,9-tetrahydro-8-methyl-4-(phenylmethyl)-pyrano[3,4-b]indole-1-acetic acid] | 4.7 | 0.25 |  |  | Preventative Adjuvant Edema, percent inhibition ([3]; 25 mg/kg, p.o.): 47% |
| CCC1(CC(=O)O)OCC(Cc2ccc(Cl)cc2)c2c1[nH]c1ccccc21 (single isomer, unassigned) [Example 42] |  |  | 18 | 24 |  |
| CCC1(CC(=O)O)OCC(Cc2ccc(F)cc2)c2c1[nH]c1ccccc21 (single isomer, unassigned) [Example 43] |  |  | 25 | 47 |  |
| CCC1(CC(=O)O)OCC(Cc2cccc(C(F)(F)F)c2)c2c1[nH]c1ccccc21 (single isomer, unassigned) [Example 44] |  |  | 25 | 22 |  |
| CCC1(CC(=O)O)OCC(Cc2ccc(F)cc2F)c2c1[nH]c1ccccc21 (single isomer, unassigned) [Example 45] |  |  | 45 | 29 |  |
| CCC1(CC(=O)O)OCC(Cc2ccccc2)c2c1[nH]c1ccccc21 (single isomer, unassigned; isomer a) [Example 1, 1-Ethyl-1,3,4,9-tetrahydro-4-(phenylmethyl)-pyrano[3,4-b]indole-1-acetic Acid (Isomer A)] | 1.9 | 0.003 |  |  | inhibition in vivo at 25 mg/kg ([3]; 25 mg/kg, p.o.): 37% |

Source: patent US4826994A, “Production of substituted 1,3,4,9-tetrahydropyrano(3,4-B)indole-1-acetic acids” (American Home Products Corporation, priority 1988, dated 1989)
